In patent publication US11985932B2 (priority 2019, dated 2024):

Assays:
[1] = tested on: rice blast fungus (Magnaporthe grisea strain K-06); type: in vivo; details: for hyphal elongation of rice blast fungus in the leaf sheath / blast resistance: progeny (third generation; R2) of treated lines, 150 μM (salicylic acid 1 mM), vs Nipponbare, FIG. 11B; for hyphal elongation of Magnaporthe oryzae in the leaf sheath / disease resistance: regenerated rice individuals, callus treated at 150 μM (salicylic acid 1 mM), P<0.05, FIG. 11A
[2] = tested on: Pseudomonas syringae pv. tabaci; experiment: Pseudomonas syringae pv. tabaci inoculation of Nicotiana benthamiana leaves, CFU; type: in vivo; details: R0 plant of Nicotiana benthamiana of callus treated with probenazole
[3] = tested on: rice callus; experiment: Callus survival and redifferentiation under probenazole treatment
[4] = tested on: Botrytis cinerea; experiment: Botrytis cinerea inoculation of Nicotiana benthamiana leaves, lesion area; type: in vivo
[5] = tested on: WRKY45 gene; experiment: RNA-seq of probenazole-treated rice callus (WRKY45 induction); type: cell-based, Oryza sativa cv. Nipponbare; details: 7th day after probenazole treatment (50, 100 or 150 μM) on dedifferentiation-inducing medium
[6] = tested on: Botrytis cinerea; experiment: Botrytis cinerea inoculation of tomato leaves, lesion area; type: in vivo; details: regenerated tomato (Micro-Tom) lines, callus treated with 200 μM probenazole; vs WT

CSC(=O)c1cccc2nnsc12 [acibenzolar S-methyl]
hyphal elongation of rice blast fungus in the leaf sheath / blast resistance [1]: significant blast resistance | hyphal elongation of Magnaporthe oryzae in the leaf sheath / disease resistance [1]: significant disease resistance

N#Cc1ccccc1NC(=O)c1snc(Cl)c1Cl [isothianil, isotianil]
hyphal elongation of rice blast fungus in the leaf sheath / blast resistance [1]: significant blast resistance | hyphal elongation of Magnaporthe oryzae in the leaf sheath / disease resistance [1]: significant disease resistance

C=CCOC1=NS(=O)(=O)c2ccccc21 [probenazole, 3-prop-2-enoxy-1,2-benzothiazole 1,1-dioxide]
growth of Pseudomonas syringae pv. tabaci [2]: markedly suppressed | number of meristems formed in callus and appearance rate of regenerated plants ([3]; compared to control not treated with probenazole): no significant difference | redifferentiation from callus ([3]; probenazole treatment in dedifferentiation or redifferentiation process): not inhibited | callus survival rate ([3]; probenazole-treated rice callus vs control callus): 100% | Botrytis cinerea resistance ([4]; R1, self-fertilized progeny of R0, Nicotiana benthamiana): Significant Botrytis cinerea resistance | expansion of lesions of Botrytis cinerea ([4]; current generation (R0) of regenerated Nicotiana benthamiana, callus treated with 200 μM probenazole 7 to 21 days, vs wild type): significantly suppressed | expression of the WRKY45 gene in callus [5]: induced | hyphal elongation of rice blast fungus in the leaf sheath / blast resistance [1]: significant blast resistance | hyphal elongation of Magnaporthe oryzae in the leaf sheath / disease resistance [1]: significant disease resistance | lesion expansion of Botrytis cinerea in tomato leaves [6]: significantly suppressed

O=C(O)c1ccccc1O [salicylic acid]
hyphal elongation of rice blast fungus in the leaf sheath / blast resistance [1]: significant blast resistance | hyphal elongation of Magnaporthe oryzae in the leaf sheath / disease resistance [1]: significant disease resistance

Cc1ccc(NC(=O)c2snnc2C)cc1Cl [tiadinil]
hyphal elongation of rice blast fungus in the leaf sheath / blast resistance [1]: significant blast resistance | hyphal elongation of Magnaporthe oryzae in the leaf sheath / disease resistance [1]: significant disease resistance
